Source: article PMC5218480 (PLoS ONE, 2017)

System: MV-4-11 cells
Experiment: Gene expression microarray analysis (Affymetrix PrimeView) and GSEA
Type: cell-based, human
Design: RFU PODN (11730768_x_at) / Fold change /veh PODN (11730768_x_at) / RFU LINC00158 (11744669_a_at) / Fold change /veh LINC00158 (11744669_a_at) / RFU DUSP10 (11751237_a_at) / Fold change /veh DUSP10 (11751237_a_at) / RFU ID3 (11757404_x_at) / Fold change /veh ID3 (11757404_x_at) / RFU PLEKHG5 (11737974_s_at) / Fold change /veh PLEKHG5 (11737974_s_at) / RFU LRRC4B (11730491_at) / Fold change /veh LRRC4B (11730491_at) / RFU GIMAP4 (11747438_a_at) / Fold change /veh GIMAP4 (11747438_a_at) / RFU KRT8 (11758183_x_at) / Fold change /veh KRT8 (11758183_x_at) / RFU CNN1 (11734310_a_at) / Fold change /veh CNN1 (11734310_a_at) / RFU VPS37D (11726825_at) / Fold change /veh VPS37D (11726825_at) / RFU C10orf10 (11716522_x_at) / Fold change /veh C10orf10 (11716522_x_at) / RFU KIR2DL2 /// KIR2DL4 /// KIR2DL5A /// KIR2DL5B /// KIR2DS1 /// KIR2DS2 /// KIR2DS3 /// KIR2DS4 /// KIR3DL3 /// KIR3DL3 /// KIR3DS1 (11738374_at) / Fold change /veh KIR2DL2 /// KIR2DL4 /// KIR2DL5A /// KIR2DL5B /// KIR2DS1 /// KIR2DS2 /// KIR2DS3 /// KIR2DS4 /// KIR3DL3 /// KIR3DL3 /// KIR3DS1 (11738374_at) / RFU C1QL1 (11718748_at) / Fold change /veh C1QL1 (11718748_at) / RFU TMPRSS4 (11747572_a_at) / Fold change /veh TMPRSS4 (11747572_a_at) / RFU HAMP (11756126_x_at) / Fold change /veh HAMP (11756126_x_at) / RFU RNFT2 (11725882_a_at) / Fold change /veh RNFT2 (11725882_a_at) / RFU NR4A2 (11747474_a_at) / Fold change /veh NR4A2 (11747474_a_at) / RFU ABCC12 (11746883_a_at) / Fold change /veh ABCC12 (11746883_a_at) / RFU TMEM136 (11760407_x_at) / Fold change /veh TMEM136 (11760407_x_at) / RFU CLDN22 /// WWC2 (11732394_at) / Fold change /veh CLDN22 /// WWC2 (11732394_at) / RFU HLA-DPB1 (11760878_x_at) / Fold change /veh HLA-DPB1 (11760878_x_at) / RFU SPINT1 (11716480_a_at) / Fold change /veh SPINT1 (11716480_a_at) / RFU GAP43 (11754022_s_at) / Fold change /veh GAP43 (11754022_s_at) / RFU A4GNT (11735810_at) / Fold change /veh A4GNT (11735810_at) / RFU PRB3 (11715151_x_at) / Fold change /veh PRB3 (11715151_x_at) / RFU TUBB4B (11761932_at) / Fold change /veh TUBB4B (11761932_at) / RFU CAPN14 (11732068_a_at) / Fold change /veh CAPN14 (11732068_a_at) / RFU TMCC2 (11721928_a_at) / Fold change /veh TMCC2 (11721928_a_at) / RFU IRGQ (11745062_a_at) / Fold change /veh IRGQ (11745062_a_at) / RFU FAM174B (11720279_a_at) / Fold change /veh FAM174B (11720279_a_at) / RFU TMPRSS4 (11748680_a_at) / Fold change /veh TMPRSS4 (11748680_a_at) / RFU FAM212B (11763350_a_at) / Fold change /veh FAM212B (11763350_a_at) / RFU PLEKHG5 (11743358_a_at) / Fold change /veh PLEKHG5 (11743358_a_at) / RFU ZSCAN30 (11745921_a_at) / Fold change /veh ZSCAN30 (11745921_a_at) / RFU CMKLR1 (11741424_a_at) / Fold change /veh CMKLR1 (11741424_a_at) / RFU LOC101060620 /// MAPK8IP1 (11723275_at) / Fold change /veh LOC101060620 /// MAPK8IP1 (11723275_at) / RFU SPTSSB (11747773_x_at) / Fold change /veh SPTSSB (11747773_x_at) / RFU PRSS12 (11739890_at) / Fold change /veh PRSS12 (11739890_at) / RFU BIN1 (11741810_x_at) / Fold change /veh BIN1 (11741810_x_at) / RFU WNT11 (11732464_a_at) / Fold change /veh WNT11 (11732464_a_at) / RFU C10orf10 (11716521_a_at) / Fold change /veh C10orf10 (11716521_a_at) / RFU C5orf56 (11738089_at) / Fold change /veh C5orf56 (11738089_at) / RFU CYB561 (11721691_x_at) / Fold change /veh CYB561 (11721691_x_at) / RFU ANKRD19P (11752326_a_at) / Fold change /veh ANKRD19P (11752326_a_at) / RFU OR2T12 /// OR2T33 /// OR2T8 (11738714_s_at) / Fold change /veh OR2T12 /// OR2T33 /// OR2T8 (11738714_s_at) / RFU VCAN (11748164_a_at) / Fold change /veh VCAN (11748164_a_at) / RFU JSRP1 (11732532_at) / Fold change /veh JSRP1 (11732532_at) / RFU KRTAP10-11 (11738290_x_at) / Fold change /veh KRTAP10-11 (11738290_x_at) / RFU MYO3A (11730013_a_at) / Fold change /veh MYO3A (11730013_a_at) / RFU EBF3 (11725865_a_at) / Fold change /veh EBF3 (11725865_a_at) / RFU CAMK2N1 (11719241_x_at) / Fold change /veh CAMK2N1 (11719241_x_at) / RFU C5orf56 (11738088_a_at) / Fold change /veh C5orf56 (11738088_a_at) / RFU OLFML3 (11715873_a_at) / Fold change /veh OLFML3 (11715873_a_at) / RFU LOC100653217 /// NTM (11731650_a_at) / Fold change /veh LOC100653217 /// NTM (11731650_a_at) / RFU MAPK11 (11762145_a_at) / Fold change /veh MAPK11 (11762145_a_at) / RFU FIZ1 (11724087_x_at) / Fold change /veh FIZ1 (11724087_x_at) / RFU OASL (11726364_x_at) / Fold change /veh OASL (11726364_x_at) / RFU SOX15 (11748057_x_at) / Fold change /veh SOX15 (11748057_x_at) / RFU CD79A (11719716_a_at) / Fold change /veh CD79A (11719716_a_at) / RFU HIST1H1D (11736915_at) / Fold change /veh HIST1H1D (11736915_at) / RFU CASKIN2 (11723855_a_at) / Fold change /veh CASKIN2 (11723855_a_at) / RFU LOC730098 (11760151_x_at) / Fold change /veh LOC730098 (11760151_x_at) / RFU OR4N2 (11742367_at) / Fold change /veh OR4N2 (11742367_at) / RFU PRRT2 (11749266_a_at) / Fold change /veh PRRT2 (11749266_a_at) / RFU SNX32 (11753110_a_at) / Fold change /veh SNX32 (11753110_a_at) / RFU CDHR5 (11726645_a_at) / Fold change /veh CDHR5 (11726645_a_at) / RFU RCAN1 (11760418_a_at) / Fold change /veh RCAN1 (11760418_a_at) / RFU FAM167A (11723789_a_at) / Fold change /veh FAM167A (11723789_a_at) / RFU FAM26E (11764081_at) / Fold change /veh FAM26E (11764081_at) / RFU ISYNA1 (11749810_s_at) / Fold change /veh ISYNA1 (11749810_s_at) / RFU ACY1 (11761880_at) / Fold change /veh ACY1 (11761880_at) / RFU 11764098_at / Fold change /veh 11764098_at / RFU SAMD14 (11745864_x_at) / Fold change /veh SAMD14 (11745864_x_at) / RFU NPB (11741838_a_at) / Fold change /veh NPB (11741838_a_at) / RFU TMPRSS6 (11731388_a_at) / Fold change /veh TMPRSS6 (11731388_a_at) / RFU KRTAP10-2 (11738614_at) / Fold change /veh KRTAP10-2 (11738614_at) / RFU ARHGAP8 /// PRR5-ARHGAP8 (11727945_x_at) / Fold change /veh ARHGAP8 /// PRR5-ARHGAP8 (11727945_x_at) / RFU KRTAP5-7 /// NADSYN1 (11734609_at) / Fold change /veh KRTAP5-7 /// NADSYN1 (11734609_at) / RFU RASL12 (11751679_a_at) / Fold change /veh RASL12 (11751679_a_at) / RFU CDKN2B (11736163_a_at) / Fold change /veh CDKN2B (11736163_a_at) / RFU PRF1 (11729649_at) / Fold change /veh PRF1 (11729649_at) / RFU, ZNF638 /// ZNF638-IT1 / Fold change vs veh, ZNF638 /// ZNF638-IT1 / RFU, PANK3 / Fold change vs veh, PANK3 / RFU, SH3YL1 / Fold change vs veh, SH3YL1 / RFU, ZEB2 / Fold change vs veh, ZEB2 / RFU, NRIP1 / Fold change vs veh, NRIP1 / RFU, PTTG1IP / Fold change vs veh, PTTG1IP / RFU, CAPN2 / Fold change vs veh, CAPN2 / RFU, MED14 / Fold change vs veh, MED14 / RFU, SNORA58 / Fold change vs veh, SNORA58 / RFU, C1orf63 / Fold change vs veh, C1orf63 / RFU, LRRFIP1 / Fold change vs veh, LRRFIP1 / RFU, NDUFAF7 / Fold change vs veh, NDUFAF7 / RFU, SLC12A2 / Fold change vs veh, SLC12A2 / RFU, IBTK / Fold change vs veh, IBTK / RFU, ESF1 / Fold change vs veh, ESF1 / Fold change vs veh, TMEM50B / RFU, TAOK1 / Fold change vs veh, TAOK1 / RFU, ACBD3 / Fold change vs veh, ACBD3 / RFU, TMA16 / Fold change vs veh, TMA16 / RFU, RWDD3 / Fold change vs veh, RWDD3 / RFU, BCAT1 / Fold change vs veh, BCAT1 / RFU, EDEM3 / Fold change vs veh, EDEM3 / RFU, TMEM33 / Fold change vs veh, TMEM33 / RFU, WDR75 / Fold change vs veh, WDR75 / RFU, AHCTF1 / Fold change vs veh, AHCTF1 / RFU, TFRC / Fold change vs veh, TFRC / RFU, ZDHHC17 / Fold change vs veh, ZDHHC17 / RFU, NOM1 / Fold change vs veh, NOM1 / RFU, ARL8B / Fold change vs veh, ARL8B / RFU, ZBTB11 / Fold change vs veh, ZBTB11 / RFU, TAMM41 / Fold change vs veh, TAMM41 / RFU, KIAA1704 /// LOC100996395 / Fold change vs veh, KIAA1704 /// LOC100996395 / RFU, ING1 / Fold change vs veh, ING1 / RFU, TRMT61B / Fold change vs veh, TRMT61B / RFU, FUBP3 / Fold change vs veh, FUBP3 / RFU, TP53 / Fold change vs veh, TP53 / RFU, TNKS2 / Fold change vs veh, TNKS2 / RFU, ZFP14 / Fold change vs veh, ZFP14 / RFU, ACTR2 / Fold change vs veh, ACTR2 / RFU, PPP3R1 / Fold change vs veh, PPP3R1 / RFU, PIK3R1 / Fold change vs veh, PIK3R1 / RFU, HNRNPA1 / Fold change vs veh, HNRNPA1 / RFU, RNF170 / Fold change vs veh, RNF170 / RFU, ZNF28 / Fold change vs veh, ZNF28 / RFU, RNGTT / Fold change vs veh, RNGTT / RFU, OGT / Fold change vs veh, OGT / RFU, BRD1 / Fold change vs veh, BRD1 / RFU, MARS / Fold change vs veh, MARS / RFU, ZNF655 / Fold change vs veh, ZNF655 / RFU, FAHD1 / Fold change vs veh, FAHD1 / RFU, BDP1 / Fold change vs veh, BDP1 / RFU, LRRCC1 / Fold change vs veh, LRRCC1 / RFU, ARID1A / Fold change vs veh, ARID1A / RFU, ZNF146 / Fold change vs veh, ZNF146 / RFU, ZNF330 / Fold change vs veh, ZNF330 / RFU, GPN3 / Fold change vs veh, GPN3 / RFU, C9orf123 / Fold change vs veh, C9orf123 / RFU, N4BP2L2 / Fold change vs veh, N4BP2L2 / RFU, ARFIP1 / Fold change vs veh, ARFIP1 / RFU, FAM179B / Fold change vs veh, FAM179B / RFU, BCL10 / Fold change vs veh, BCL10 / RFU, UHRF1BP1L / Fold change vs veh, UHRF1BP1L / RFU, BET1 / Fold change vs veh, BET1 / RFU, CNOT2 / Fold change vs veh, CNOT2 / RFU, ZNF268 / Fold change vs veh, ZNF268 / Fold change vs veh, ZNF507 / RFU, DGCR2 / Fold change vs veh, DGCR2 / RFU, WDSUB1 / Fold change vs veh, WDSUB1 / Fold change vs veh, HSP90B1 /// MIR3652 / RFU, ADSS / Fold change vs veh, ADSS / RFU, GK / Fold change vs veh, GK / RFU, ZNF148 / Fold change vs veh, ZNF148 / RFU, TAF9 / Fold change vs veh, TAF9 / RFU, SLC1A5 / Fold change vs veh, SLC1A5 / RFU, SLMO2 / Fold change vs veh, SLMO2 / RFU, ABCC4 / Fold change vs veh, ABCC4 / RFU, LOC101060439 /// RAP1B / Fold change vs veh, LOC101060439 /// RAP1B / RFU, RFX7 / Fold change vs veh, RFX7 / RFU, GTPBP10 / Fold change vs veh, GTPBP10 / RFU, CNEP1R1 / Fold change vs veh, CNEP1R1 / RFU, BIVM-ERCC5 /// ERCC5 / Fold change vs veh, BIVM-ERCC5 /// ERCC5 / RFU, ILF3 / Fold change vs veh, ILF3 / RFU 11762660_at / Fold change /veh 11762660_at / RFU VCAN (11757783_s_at) / Fold change /veh VCAN (11757783_s_at) / RFU DDX43 (11728927_at) / Fold change /veh DDX43 (11728927_at) / RFU KRT8 (11758188_x_at) / Fold change /veh KRT8 (11758188_x_at) / RFU NKD1 (11759106_at) / Fold change /veh NKD1 (11759106_at) / RFU SRD5A1 (11742802_a_at) / Fold change /veh SRD5A1 (11742802_a_at) / RFU TPSAB1 /// TPSB2 (11721975_s_at) / Fold change /veh TPSAB1 /// TPSB2 (11721975_s_at) / RFU GSTM3 (11746129_a_at) / Fold change /veh GSTM3 (11746129_a_at) / RFU IL23R (11737362_x_at) / Fold change /veh IL23R (11737362_x_at) / RFU TMEM51 (11727254_a_at) / Fold change /veh TMEM51 (11727254_a_at) / RFU PIWIL2 (11732686_x_at) / Fold change /veh PIWIL2 (11732686_x_at) / RFU ORM1 (11744905_x_at) / Fold change /veh ORM1 (11744905_x_at) / RFU CCDC152 (11743942_at) / Fold change /veh CCDC152 (11743942_at) / RFU ECM1 (11717891_a_at) / Fold change /veh ECM1 (11717891_a_at) / RFU IL23R (11748794_a_at) / Fold change /veh IL23R (11748794_a_at) / RFU TNFAIP8L3 (11732012_x_at) / Fold change /veh TNFAIP8L3 (11732012_x_at) / RFU MBOAT4 (11741988_at) / Fold change /veh MBOAT4 (11741988_at) / RFU 11764193_at / Fold change /veh 11764193_at / RFU TMEM53 (11763286_at) / Fold change /veh TMEM53 (11763286_at) / RFU MAGEB2 (11727129_at) / Fold change /veh MAGEB2 (11727129_at) / RFU TMEM200A (11744735_a_at) / Fold change /veh TMEM200A (11744735_a_at) / RFU CCDC152 (11751479_a_at) / Fold change /veh CCDC152 (11751479_a_at) / RFU FAM211A (11726209_a_at) / Fold change /veh FAM211A (11726209_a_at) / RFU RGS16 (11746705_a_at) / Fold change /veh RGS16 (11746705_a_at) / RFU VCAN (11755009_s_at) / Fold change /veh VCAN (11755009_s_at) / RFU RHOB (11743442_s_at) / Fold change /veh RHOB (11743442_s_at) / RFU RGS16 (11720943_a_at) / Fold change /veh RGS16 (11720943_a_at) / RFU RGS16 (11720944_at) / Fold change /veh RGS16 (11720944_at) / RFU, VPS4B / Fold change vs veh, VPS4B / RFU, CREB1 / Fold change vs veh, CREB1 / RFU, DNAJC13 / Fold change vs veh, DNAJC13 / RFU, GNAQ / Fold change vs veh, GNAQ / RFU, CDK5R1 / Fold change vs veh, CDK5R1 / RFU, ZRANB3 / Fold change vs veh, ZRANB3 / RFU, CUL4A / Fold change vs veh, CUL4A / RFU, CCNY / Fold change vs veh, CCNY / RFU, UFL1 / Fold change vs veh, UFL1 / RFU, COG3 / Fold change vs veh, COG3 / RFU, DIAPH2 / Fold change vs veh, DIAPH2 / RFU, SKA2 / Fold change vs veh, SKA2 / RFU, AFF3 / Fold change vs veh, AFF3 / RFU, LMF1 / Fold change vs veh, LMF1 / RFU, IPO11 / Fold change vs veh, IPO11 / RFU, DFFB / Fold change vs veh, DFFB / RFU, FOXP1 / Fold change vs veh, FOXP1 / RFU, CARD8 / Fold change vs veh, CARD8 / RFU, STRN3 / Fold change vs veh, STRN3 / RFU, ADK / Fold change vs veh, ADK / RFU, RASSF2 / Fold change vs veh, RASSF2 / RFU, WIPF1 / Fold change vs veh, WIPF1 / RFU, LARP1B / Fold change vs veh, LARP1B / RFU, RASA1 / Fold change vs veh, RASA1 / RFU, RB1 / Fold change vs veh, RB1 / RFU, PPFIA1 / Fold change vs veh, PPFIA1 / RFU, MAT2A / Fold change vs veh, MAT2A / RFU, CCT5 / Fold change vs veh, CCT5 / RFU, WDR92 / Fold change vs veh, WDR92 / RFU, CUX1 / Fold change vs veh, CUX1 / RFU, TTC7A / Fold change vs veh, TTC7A / RFU, TMEM135 / Fold change vs veh, TMEM135 / RFU, DEPTOR / Fold change vs veh, DEPTOR / RFU, CPM / Fold change vs veh, CPM / RFU, DNAJB6 / Fold change vs veh, DNAJB6 / RFU, CACNA2D3 / Fold change vs veh, CACNA2D3 / RFU, DTX4 / Fold change vs veh, DTX4 / RFU, TFCP2 / Fold change vs veh, TFCP2 / RFU, GMCL1 /// GMCL1P1 / Fold change vs veh, GMCL1 /// GMCL1P1 / RFU, AEBP2 / Fold change vs veh, AEBP2 / RFU, SNHG1 /// SNORD22 /// SNORD25 /// SNORD26 /// SNORD27 /// SNORD28 /// SNORD29 /// SNORD31 / Fold change vs veh, SNHG1 /// SNORD22 /// SNORD25 /// SNORD26 /// SNORD27 /// SNORD28 /// SNORD29 /// SNORD31 / Fold change (Aza/veh), C12orf56 (ProbeSet 11735607_a_at) / Fold change (ACY-1035/veh), C12orf56 (ProbeSet 11735607_a_at) / Fold change (Aza/veh), FGFR1OP (ProbeSet 11751329_s_at) / Fold change (ACY-1035/veh), FGFR1OP (ProbeSet 11751329_s_at) / Fold change (Aza/veh), VPS36 (ProbeSet 11739960_a_at) / Fold change (ACY-1035/veh), VPS36 (ProbeSet 11739960_a_at) / RFU SYPL1 (11715823_x_at) / Fold change /veh SYPL1 (11715823_x_at) / RFU IGFBP7 (11715501_s_at) / Fold change /veh IGFBP7 (11715501_s_at) / RFU REEP3 (11722064_at) / Fold change /veh REEP3 (11722064_at) / RFU IGLL1 (11728026_x_at) / Fold change /veh IGLL1 (11728026_x_at): dose or concentration left out as unconfirmed
Details: MV-4-11 cells, 48 hours

## Nc1ncn([C@@H]2O[C@H](CO)[C@@H](O)[C@H]2O)c(=O)n1 [azacitidine]
  Fold change /veh VCAN (11757783_s_at): 1.30
